Values quoted from earlier work, collected in patent US20170304196A1, “ORALLY DISINTEGRATING TABLET AND METHOD FOR PRODUCING SAME” (FUJIFILM CORPORATION, priority 2015, published 2017).

Conditions: anionic substance

CCCCCCCCCCCCOS(=O)(=O)[O-].[Na+] [sodium lauryl sulfate]
pKa: 1.9
